Where no end group is shown, it is not given here. red fluorescent dye = not defined here
What was measured:
[1] = target: T1, AKT1 (Homo sapiens, UniProt P31749); experiment: AKT kinase assay with Ser-9 GSK-3 GST fusion protein substrate (western blot, phospho-specific antibody); assay type: biochemical; conditions: wild-type active AKT
T1 construct: purchased Upstate Biotechnology
Description: Since the observed effect of H-89 and forskolin on AKT activity in cultured cells could be interpreted as the result of the regulatory interference of other signaling pathways, in vitro analysis was carried using purified, active forms of AKT and PKAc to examine the direct result of this interaction on the kinase catalytic activity. […] This decrease in the catalytic activity of AKT by PKAc was inhibited when the PKA inhibitor was added to the reaction mixture. […] The decrease in the catalytic activity of AKT by PKAc was also observed with two mutants and active forms of AKT1, one with a deletion in the PH domain and the other one with a Ser473Asp mutation. As with wild-type AKT, the inhibitory effect of PKAc on the mutants was reversed in the presence of the PKA inhibitor peptide. […]
For non-radioactive kinase assays, typically 25 ng of active AKT1 or PKAc (Upstate Biotechnology) was used in a kinase assay reaction buffer (20 mM MOPS, pH 7.2, 25 mM […]-glycerophosphate, 5 mM EGTA, 1 mM Na3VO4, 1 mM dithiothreitol, 75 mM MgCl2, and 0.5 mM ATP) in the presence of either 1 μL of Ser-9 GSK-3 GST fusion protein (Cell Signaling), or recombinant DARPP-32 (10 μg). […] A 5 μL aliquot of the reaction was transferred to phosphocellulose paper, washed for 30 minutes with dH2O, and CPM of samples read in scintillation counter.

[2] = test system: PKA and CDK5; experiment: In vivo phosphorylation of DARPP-32 at Thr-34 (PKA site) and Thr-75 (CDK5 site); set-up: species or system mouse; conditions: striatum
Description: As a striatal specific substrate for PKA and CDK5, the phosphorylation level of DARPP-32 was determined at Thr-34 (the PKA site) or at Thr-75 (the CDK5 site)(Huang, et al. (1999) supra).

[3] = test system: N2a cells; experiment: Trypan blue staining, live and dead cell count; assay type: cell-based
From the text: Therefore, in addition to capturing live images, cells were stained with trypan blue at different time intervals following treatment with ZaTa and counted by a light microscope using a hemocytometer.

[4] = target: Abl (Homo sapiens, UniProt P00519); experiment: Cell-based kinase assay, phosphorylation of intracellular substrate (Tyr-207 CRKL)
Description: As a specific substrate, the phosphorylation level of GSK-3[…] at Ser-9 was also evaluated. […] The decrease was specific to the AKT phosphorylation site on GSK-3[…] at Ser-9, since a change in the phosphorylation level of GSK-3[…] at Tyr-216 or GSK-3[…] at Tyr-279 was not observed. Moreover, the in vivo reduction of the phosphorylation of AKT substrates was more obvious at the injection site, since a significant change in the phosphorylation of AKT substrates in the frontal cortex or cerebellum between the two hemispheres was not observed. […] To test the specificity/selectivity of ZaTa as the inhibitor of AKT1 versus the other major kinases, a series of in vitro kinase assays was performed at IC50 for AKT1 and at ten times higher concentrations. […]
Phosphorylation sites for kinases analyzed herein included Ser-235/236 S6 (a substrate for p70S6K), Tyr-207 CRKL (a substrate for Abl; Zipfel, et al. (2004) supra), Ser-241 PDK1 (a substrate for PI3K), Tyr-1022/1023 JAK1 (a substrate for JAK3; Wang, et al. (2003) supra), Ser-421 Huntingtin (a substrate for SGK; Rangone, et al. (2004) supra), Tyr-783 PLC (a substrate for TrkB; Middlemas, et al. (1994) supra), and Ser-338 cRaf (a substrate for PAK3; King, et al. (1998) supra).

Abl, sequence (P00519 whole entry, species assumed): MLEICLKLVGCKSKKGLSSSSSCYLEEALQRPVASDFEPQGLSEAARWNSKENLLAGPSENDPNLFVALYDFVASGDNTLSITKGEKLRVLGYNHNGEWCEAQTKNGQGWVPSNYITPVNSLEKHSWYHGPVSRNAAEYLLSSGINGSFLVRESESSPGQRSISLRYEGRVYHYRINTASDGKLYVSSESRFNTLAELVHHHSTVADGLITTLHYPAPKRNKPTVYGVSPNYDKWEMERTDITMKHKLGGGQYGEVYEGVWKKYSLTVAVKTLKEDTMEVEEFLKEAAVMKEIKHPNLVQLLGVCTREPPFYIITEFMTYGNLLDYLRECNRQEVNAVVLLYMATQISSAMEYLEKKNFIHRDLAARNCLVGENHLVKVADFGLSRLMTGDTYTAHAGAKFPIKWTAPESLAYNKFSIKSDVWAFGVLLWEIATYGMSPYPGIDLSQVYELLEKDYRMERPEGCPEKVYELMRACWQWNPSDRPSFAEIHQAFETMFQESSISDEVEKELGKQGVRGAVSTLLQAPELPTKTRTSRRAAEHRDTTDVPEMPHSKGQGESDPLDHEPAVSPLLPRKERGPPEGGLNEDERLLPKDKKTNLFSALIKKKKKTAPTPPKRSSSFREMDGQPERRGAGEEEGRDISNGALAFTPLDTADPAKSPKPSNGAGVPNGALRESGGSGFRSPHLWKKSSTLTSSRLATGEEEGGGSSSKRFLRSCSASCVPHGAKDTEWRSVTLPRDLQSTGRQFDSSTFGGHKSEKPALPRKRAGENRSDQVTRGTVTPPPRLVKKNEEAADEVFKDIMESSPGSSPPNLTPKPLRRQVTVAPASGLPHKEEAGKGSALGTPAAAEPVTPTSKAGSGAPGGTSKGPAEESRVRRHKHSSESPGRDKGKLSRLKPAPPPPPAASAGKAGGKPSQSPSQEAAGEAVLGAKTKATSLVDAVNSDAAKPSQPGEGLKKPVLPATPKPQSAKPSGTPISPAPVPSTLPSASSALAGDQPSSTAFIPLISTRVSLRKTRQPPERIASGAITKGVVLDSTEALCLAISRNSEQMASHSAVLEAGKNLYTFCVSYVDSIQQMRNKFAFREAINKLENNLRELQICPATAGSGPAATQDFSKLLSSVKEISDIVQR
T1 sequence (P31749 whole entry, the tested form may be a part): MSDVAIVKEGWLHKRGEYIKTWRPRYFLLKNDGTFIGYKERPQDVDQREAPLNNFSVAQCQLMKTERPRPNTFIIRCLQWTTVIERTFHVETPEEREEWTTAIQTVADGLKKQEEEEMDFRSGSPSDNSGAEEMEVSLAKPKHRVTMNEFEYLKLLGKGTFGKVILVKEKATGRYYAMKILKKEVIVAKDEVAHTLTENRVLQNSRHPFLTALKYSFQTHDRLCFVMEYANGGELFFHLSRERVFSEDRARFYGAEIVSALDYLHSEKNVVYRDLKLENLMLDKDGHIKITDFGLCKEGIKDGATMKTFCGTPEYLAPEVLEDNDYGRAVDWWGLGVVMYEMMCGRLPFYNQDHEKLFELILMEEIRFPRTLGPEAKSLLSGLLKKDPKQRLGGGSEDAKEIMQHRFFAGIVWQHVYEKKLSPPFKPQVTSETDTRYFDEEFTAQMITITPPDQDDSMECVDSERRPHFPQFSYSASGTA

Substance | AKT catalytic activity, phosphorylation level of Ser-9 GSK-3 GST substrate [1] | phosphorylation of DARPP-32 at Thr-34 or Thr-75 [2] | increase in the number of dead cells ([3]; counted at time points from 12 to 72 hours) | number of live cells, trypan blue ([3]; different time intervals) | inhibition of Abl in cells [4]
AKRVKGRTWTLCGTPEY [ZaTa] | significantly reduced | did not cause any significant change | not seen | dose-dependent decrease | 
labeled ZaTa: ZaTa peptide labeled with a red fluorescent dye at its N-terminus ({red fluorescent dye}-AKRVKGRTWTLCGTPEY; reading uncertain) |  |  |  |  | did not cause inhibition
